Nine molecules from US20240158446A1, “CYCLIC COMPOUND HAVING SELECTIVE INHIBITORY ACTION ON KRAS OVER HRAS AND NRAS” (CHUGAI SEIYAKU KABUSHIKI KAISHA, priority 2021, published 2024) can be followed below.

The target of test [1] is GDP-bound KRAS wild-type protein (Homo sapiens, UniProt P01116). Kind of test: Binding to KRAS by surface plasmon resonance (SPR), Single Cycle Kinetics.
The target in test [2] is GDP-bound NRAS wild-type protein (Homo sapiens, UniProt P01111). Kind of test: Binding to NRAS by surface plasmon resonance (SPR), Single Cycle Kinetics. As to conditions: for NRAS/KRAS (ratio of KD value with respect to GDP-bound NRAS wild-type protein to KD value with respect to KRAS): SPR KD ratio NRAS/KRAS, class symbols; for NRAS/KRAS (ratio of KD value for NRAS to KD value for KRAS): GDP-bound NRAS wild-type protein vs GDP-bound KRAS wild-type protein.

Test [3] concerns the target GDP-bound HRAS wild-type protein (Homo sapiens, UniProt P01112). Kind of test: Binding to HRAS by surface plasmon resonance (SPR), Single Cycle Kinetics. The following applies: for HRAS/KRAS (ratio of KD value with respect to GDP-bound HRAS wild-type protein to KD value with respect to KRAS): SPR KD ratio HRAS/KRAS, class symbols; for HRAS/KRAS (ratio of KD value for HRAS to KD value for KRAS): GDP-bound HRAS wild-type protein vs GDP-bound KRAS wild-type protein. A general note: Surface plasmon resonance follows binding to a sensor surface in real time, without labels.

Test [4] relates to human lung cancer strain NCI-H441.
[5] abbreviates: SPR Single Cycle Kinetics, GDP-bound KRAS wild-type protein, 1:1 binding model, read-out: KRAS KD.
Where [6] appears, read: SPR, Single Cycle Kinetics, 1:1 binding model, GDP-bound KRAS wild-type protein, read-out: KRAS KD.

Read-outs that look alike come from different tables or passages of the source.
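Throughout, for IC50: cell proliferation inhibition after four days measured by CellTiter-Glo.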

Sequence of GDP-bound KRAS wild-type protein (P01116 whole entry): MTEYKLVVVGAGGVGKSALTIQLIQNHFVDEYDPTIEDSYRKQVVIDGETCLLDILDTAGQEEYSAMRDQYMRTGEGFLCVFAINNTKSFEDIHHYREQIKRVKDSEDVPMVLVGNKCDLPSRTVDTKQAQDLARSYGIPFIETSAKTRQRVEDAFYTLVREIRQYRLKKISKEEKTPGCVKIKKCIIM
Sequence of GDP-bound HRAS wild-type protein (P01112 whole entry): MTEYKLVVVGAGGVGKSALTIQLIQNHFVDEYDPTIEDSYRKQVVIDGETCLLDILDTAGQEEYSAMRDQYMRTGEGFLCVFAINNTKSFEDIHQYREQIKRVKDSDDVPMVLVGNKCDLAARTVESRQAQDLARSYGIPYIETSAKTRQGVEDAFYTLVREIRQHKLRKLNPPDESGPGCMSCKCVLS
Sequence of GDP-bound NRAS wild-type protein (P01111 whole entry): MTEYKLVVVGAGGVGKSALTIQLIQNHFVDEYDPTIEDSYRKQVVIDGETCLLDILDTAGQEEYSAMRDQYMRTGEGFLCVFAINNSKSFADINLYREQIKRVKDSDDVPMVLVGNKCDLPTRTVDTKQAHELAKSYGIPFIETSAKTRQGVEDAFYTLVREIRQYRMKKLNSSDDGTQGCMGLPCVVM

For `CCOC[C@H]1C(=O)N[C@@H]([C@@H](C)CC)C(=O)N(C)CC(=O)N(C)[C@H]2C/C=C\CCN(C2=O)[C@@H](Cc2ccc(C(F)(F)F)cc2)C(=O)N(C)CC(=O)N[C@@H](CCc2cc(F)c(C(F)(F)F)c(F)c2)C(=O)N2C[C@H](OCC)C[C@H]2C(=O)NC2(CC(C)(C)C2)C(=O)N(C)[C@@H](CC2CCC2)C(=O)N(C)[C@H](C(=O)N(C)C)CC(=O)N1C` [PP2763], the equilibrium dissociation constant (Kd) in test [1] (setting [5]) was found to be 0.86 nM. In addition, the “NRAS/KRAS (ratio of KD value with respect to GDP-bound NRAS wild-type protein to KD value with respect to KRAS)” value in test [2] is “A (a compound having 10 or more and less than 20 is denoted as A)”. In addition, the “HRAS/KRAS (ratio of KD value with respect to GDP-bound HRAS wild-type protein to KD value with respect to KRAS)” value in test [3] was “A (a compound having 10 or more and less than 20 is denoted as A)”. Also, the IC50 in test [4] came to 71.9 nM.

Take `CCO[C@@H]1C[C@H]2C(=O)NC3(CCC3)C(=O)N(C)[C@@H](C3CCCC3)C(=O)N(C)[C@@H](C(=O)N(C)C)CC(=O)N(C)[C@@H](CC)C(=O)N[C@@H]([C@@H](C)CC)C(=O)N(C)CC(=O)N(C)[C@H]3C/C=C\CCN(C3=O)[C@@H](Cc3ccc(C(F)(F)F)cc3)C(=O)N(C)CC(=O)N[C@@H](CCc3cc(F)c(C(F)(F)F)c(F)c3)C(=O)N2C1` [PP1234]: the Kd in test [1] (setting [6]) is 3.8 nM. The “NRAS/KRAS (ratio of KD value for NRAS to KD value for KRAS)” value in test [2] (SPR, KD ratio class) is “B (a compound having 3 or more and less than 10 is denoted as B)”. Besides, in test [3] (SPR, KD ratio class), the “HRAS/KRAS (ratio of KD value for HRAS to KD value for KRAS)” value was “C (A compound having a KD ratio of 0.1 or more and less than 3 is denoted as C)”. In addition, the IC50 in test [4] worked out at 398 nM.

With `CC[C@H](C)[C@@H]1NC(=O)[C@H](CC2CC2)N(C)C(=O)C[C@@H](C(=O)N2CCOCC2)N(C)C(=O)[C@H](C2CCCC2)N(C)C(=O)C2(CCC2)NC(=O)[C@@H]2CCCN2C(=O)[C@H](CCc2ccc(C(F)(F)F)c(Cl)c2)NC(=O)CN(C)C(=O)[C@H](Cc2ccc(C(F)(F)F)cc2)N2C[C@H](C)CC[C@@H](C2=O)N(C)C(=O)[C@@H]2CCN2C1=O` [PP1341], the Kd in test [1] (setting [6]) is 0.81 nM. Further, in test [2] (SPR, KD ratio class), the “NRAS/KRAS (ratio of KD value for NRAS to KD value for KRAS)” value was “A (a compound having 10 or more and less than 20 is denoted as A)”. Moreover, in test [3] (SPR, KD ratio class), the “HRAS/KRAS (ratio of KD value for HRAS to KD value for KRAS)” value is “B (a compound having 3 or more and less than 10 is denoted as B)”. In test [4], this molecule registered an IC50 of 46.3 nM.

Take `CCO[C@@H]1C[C@H]2C(=O)NC3(CCC3)C(=O)N(C)[C@@H](C3CCCC3)C(=O)N(C)[C@H](C(=O)N3CCCC3)CC(=O)N(C)[C@@H](CC3CC3)C(=O)N[C@@H]([C@@H](C)CC)C(=O)N(C)CC(=O)N(C)[C@H]3C/C=C\CCN(C3=O)[C@@H](Cc3ccc(C)cc3)C(=O)N(C)CC(=O)N[C@@H](CCc3cc(F)c(C(F)(F)F)c(F)c3)C(=O)N2C1` [PP1409]: in test [1] (setting [6]), the Kd was 0.21 nM. For the same molecule, in test [2] (SPR, KD ratio class), the “NRAS/KRAS (ratio of KD value for NRAS to KD value for KRAS)” value was “A (a compound having 10 or more and less than 20 is denoted as A)”. Besides, the “HRAS/KRAS (ratio of KD value for HRAS to KD value for KRAS)” value in test [3] (SPR, KD ratio class) was “A (a compound having 10 or more and less than 20 is denoted as A)”. In test [4], this molecule came in with an IC50 of 43.5 nM.

For `CCC[C@H]1C(=O)N[C@@H]([C@@H](C)CC)C(=O)N(C2CC2)CC(=O)N(C)[C@H]2C/C=C\CCN(C2=O)[C@@H](Cc2ccc(C)cc2)C(=O)N(C)CC(=O)N[C@@H](CCc2ccc(Cl)c(Cl)c2)C(=O)N2C[C@H](OCC)C[C@H]2C(=O)NC2(CC(C)(C)C2)C(=O)N(C)[C@@H](CC2CCC2)C(=O)N(C)[C@H](C(=O)N(C)C)CC(=O)N1C` [PP2761], the Kd in test [1] (setting [5]) stood at 2.8 nM. The “NRAS/KRAS (ratio of KD value with respect to GDP-bound NRAS wild-type protein to KD value with respect to KRAS)” value in test [2] was “A (a compound having 10 or more and less than 20 is denoted as A)”. The “HRAS/KRAS (ratio of KD value with respect to GDP-bound HRAS wild-type protein to KD value with respect to KRAS)” value in test [3] was “A (a compound having 10 or more and less than 20 is denoted as A)”. In test [4], the IC50 came to 68.4 nM.

Consider `CCC[C@H]1C(=O)N[C@@H](CC(C)C)C(=O)N(CC)CC(=O)N(C)[C@H]2C/C=C\CCN(C2=O)[C@@H](Cc2ccc(C)cc2)C(=O)N(C)CC(=O)N[C@@H](CCc2ccc(C(F)(F)F)c(Cl)c2)C(=O)N2C[C@H](OCC)C[C@H]2C(=O)NC2(CC(C)(C)C2)C(=O)N(C)[C@@H](C2CCCC2)C(=O)N(C)[C@H](C(=O)N(C)C)CC(=O)N1C` [PP2528], for which, in test [1] (setting [5]), the Kd worked out at 4.6 nM. In addition, the “NRAS/KRAS (ratio of KD value with respect to GDP-bound NRAS wild-type protein to KD value with respect to KRAS)” value in test [2] was “A (a compound having 10 or more and less than 20 is denoted as A)”. Besides, the “HRAS/KRAS (ratio of KD value with respect to GDP-bound HRAS wild-type protein to KD value with respect to KRAS)” value in test [3] was “B (a compound having 3 or more and less than 10 is denoted as B)”. Besides, the IC50 in test [4] came to 207 nM.

In the case of `CCCO[C@@H]1C[C@H]2C(=O)NC3(CC(C)(C)C3)C(=O)N(C)[C@@H](C3CCCC3)C(=O)N(C)[C@H](C(=O)N3CCCC3)CC(=O)N(C)[C@H]3CCCCc4ccc(cc4)C[C@@H](C(=O)N(C)CC(=O)N[C@@H](CCc4ccc(C(F)(F)F)c(OC)c4)C(=O)N2C1)N1CC/C=C\C[C@@H](C1=O)N(C)C(=O)CN(C)C(=O)[C@H]([C@@H](C)CC)NC3=O` [PP3094, (1S,7S,11R,13S,19S,22S,26S,29S,35S,37Z)-19-cyclopentyl-7-[2-[3-methoxy-4-(trifluoromethyl)phenyl]ethyl]-3,3′,3′,18,21,25,31,34-octamethyl-29-[(1S)-1-methylpropyl]-11-propoxy-22-(pyrrolidine-1-carbonyl)spiro[3,6,9,15,18,21,25,28,31,34,41-undecazapentacyclo[24.15.9.2^43,46.1^35,41.0^9,13]tripentaconta-37,43(52),44,46(51)-tetraene-16,1′-cyclobutane]-2,5,8,14,17,20,24,27,30,33,53-undecone], the Kd was determined as 0.081 nM in test [1] (SPR, Single Cycle Kinetics, 1:1 binding model, read-out: KD value with respect to GDP-bound KRAS wild-type protein) and 0.081 nM in test [1] (SPR, Single Cycle Kinetics, GDP-bound KRAS wild-type protein, read-out: KRAS KD). In addition, the “NRAS/KRAS (ratio of KD value for NRAS to KD value for KRAS)” value in test [2] (SPR) was “A (a compound having 10 or more and less than 20 is denoted as A)”. Besides, the “ratio of the KD value with respect to GDP-bound NRAS wild-type protein to the KD value with respect to KRAS” value in test [2] (SPR, KD(NRAS)/KD(KRAS)) is “A (a compound having 10 or more and less than 20 is denoted as A)”. Besides, the “HRAS/KRAS (ratio of KD value for HRAS to KD value for KRAS)” value in test [3] (SPR) was “B (a compound having 3 or more and less than 10 is denoted as B)”. Moreover, the “ratio of the KD value with respect to GDP-bound HRAS wild-type protein to the KD value with respect to KRAS” value in test [3] (SPR, KD(HRAS)/KD(KRAS)) was “B (a compound having 3 or more and less than 10 is denoted as B)”. Moreover, in test [4] (read-out: NCI-H441 cell proliferation inhibitory activity, 50% proliferation inhibitory concentration (IC50 value), NCI-H441, four days, CellTiter-Glo), the IC50 was 2.2 nM.

With `CCCOC[C@H]1C(=O)N[C@@H]([C@@H](C)CC)C(=O)N(C)CC(=O)N(C)[C@H]2C/C=C\CCN(C2=O)[C@@H](Cc2ccc(C)cc2)C(=O)N(C)CC(=O)N[C@@H](CCc2cc(F)c(C(F)(F)F)c(F)c2)C(=O)N2C[C@H](OCC)C[C@H]2C(=O)NC2(CC(C)(C)C2)C(=O)N(C)[C@@H](CC(C)(C)C)C(=O)N(C)[C@H](C(=O)N(C)C)CC(=O)N1C` [PP2708], the Kd in test [1] (setting [5]) is 0.072 nM. In addition, the “NRAS/KRAS (ratio of KD value with respect to GDP-bound NRAS wild-type protein to KD value with respect to KRAS)” value in test [2] was “A (a compound having 10 or more and less than 20 is denoted as A)”. The “HRAS/KRAS (ratio of KD value with respect to GDP-bound HRAS wild-type protein to KD value with respect to KRAS)” value in test [3] was “A (a compound having 10 or more and less than 20 is denoted as A)”. For the same molecule, in test [4], the IC50 stood at 5.1 nM.

With `CCO[C@@H]1C[C@H]2C(=O)NC3(CCC3)C(=O)N(C)[C@@H](C3CCCC3)C(=O)N(C)[C@H](C(=O)N3CCCCC3)CC(=O)N(C)[C@@H](CC(C)C)C(=O)N[C@@H]([C@@H](C)CC)C(=O)N(C)CC(=O)N(C)[C@H]3C/C=C\CCN(C3=O)[C@@H](Cc3ccc(C(F)(F)F)cc3)C(=O)N(C)CC(=O)N[C@@H](CCc3cc(F)c(C(F)(F)F)c(F)c3)C(=O)N2C1` [PP1290], the Kd in test [1] (setting [6]) came out at 0.24 nM. For the same molecule, the “NRAS/KRAS (ratio of KD value for NRAS to KD value for KRAS)” value in test [2] (SPR, KD ratio class) is given as “AA (a compound having 20 or more is denoted as AA)”. In addition, in test [3] (SPR, KD ratio class), the “HRAS/KRAS (ratio of KD value for HRAS to KD value for KRAS)” value was “A (a compound having 10 or more and less than 20 is denoted as A)”. Further, the IC50 in test [4] was determined as 15.4 nM.

Broadly, the Kd is the equilibrium constant for the complex coming apart.
